Data taken from patent US20080299076A1, “Compunds and compositions that cause non-apoptotic cell death and uses thereof” (priority 2006, published 2008).

Columns and labels:
[1] = Stability in mouse plasma; format: in vitro ADME; details: after five hours
Method: (§1) The stability of erastin in mouse and human liver microsomes and in mouse and human plasma was assessed. In both human and mouse liver microsomes, after 1 hr, ˜30% of erastin was converted to its primary metabolite (the O-de-ethylated product). In both human and mouse plasma, only ˜10% of erastin was lost after five hours. Thus, erastin has sufficient metabolic and plasma stability to be tested in vivo in mice.

[2] = system: BJELR cells; assay: Erastin sensitivity after upregulation of VDAC proteins by nucleofection; format: cell-based, human
Source text: Quantitative western blot showing the ratio of VDACs (top band, green) to eif4E (bottom band, red) (e). […] Green, untransfected BJELR cells; blue, mock nucleofected BJELR cells; red, VDAC2/3-nucleofected BJELR cells (f).
In certain aspects, the invention provides that erastin acts by a gain-of-function mechanism and that cells with more VDAC proteins are more sensitive to erastin. A gain-of-function mechanism operates in cells which have increased levels of topoisomerase I and are thus more sensitive to camptothecin^149. […] In other embodiments, cell lines can be stably transfected with vectors expressing VDAC1, 2, and/or 3. Thus, increased VDAC expression leads to erastin sensitivity which is consistent with a gain of function mechanism. Furthermore, a knockdown of VDACs causes erastin resistance.

[3] = system: PARP1; assay: PARP1 cleavage (western blot); format: cell-based, human; details: BJ-TERT/LT/ST/RAS^V12 cells; staurosporine 1 μM 6 h, camptothecin 1 μM 18 h, erastin 20 μg/mL
Method: BJ-TERT/LT/ST/RAS^V12 tumor cells were seeded in six-well dishes, incubated overnight at 37° C. with 5% CO2 and were treated with nothing (NT), staurosporine (ST, 1 μM) for 6 h, camptothecin (C, 1 μM) for 18 h, or erastin (20 μg/mL) for the indicated time, lysed and analyzed by western blot with an anti-PARP1 antibody. A relatively high concentration of erastin was used to ensure loss of PARP cleavage was not due to a concentration-dependent effect.
BJ-TERT/LT/ST/RAS^V12 cells were seeded in polystyrene 100×20 mm dishes (Falcon/#353003) in 10 ml of media. Three million cells were seeded in each dish. After overnight incubation at 37° C. with 5% CO2, BJ-TERT/LT/ST/RAS^V12 cells were treated with nothing, staurosporine (1 μM) for 6 h, camptothecin (1 μM) for 18 h or erastin (20 μg/mL) for 6, 10, 12, 12.5, 13, 14, 18 or 26 h, and prepared for western blotting.

[4] = system: BJ-TERT/LT/ST/RAS^V12 cells; assay: ATP detection; format: cell-based, human; details: erastin 20 μg/mL for 12 hours
Method: Cells were seeded in polystyrene 100×20 mm dishes (Falcon/#353003) in 10 mL of media. Three million cells were seeded in each dish for staurosporine (STS) and erastin treatment. Two million cells were seeded in each dish for no treatment and hydrogen peroxide treatment. Cells were treated with staurosporine (1 μM) for 12 hours, with H2O2 (16 mM) for 1.5 hours and erastin (20 μg/mL) for 12 hours. After the incubation, we counted cells using a CiCell analyzer (Beckman). 100,000 cells from each treatment were collected and washed twice in Hank's Salt Solution (10 ml). Next, we suspended cells in 200 μl of Nucleotide Releasing Buffer (BioVision/K254-200 ApoSensor Cell Viability Assay Kit) and incubated at room temperature for 10 minutes. To 10 μl of the above sample, we added 1 μl of ATP Minitoring Enzyme (BioVision/K254-200 ApoSensor Cell Viability Assay Kit) and read the ATP levels of the samples using a luminometer.
ATP levels were measured in BJERL cells treated with nothing (NT), treated with 1 μM of Staurosporine (STS) for 12 hours, with 16 mM of hydrogen peroxide for 1.5 hours and 20 μg/mL of erastin for 12 hours. ATP levels were normalized by number of viable cells.

[5] = Stability in human liver microsomes; format: in vitro ADME; details: after 1 hr
Method: as §1

[6] = Toxicity after injection in mice; format: in vivo
Method: In certain embodiments, erastin was formulated at 150 mg/kg in 10% DMSO, 20% Tween 80, 70% saline and 0.5 mL of this formulation was injected via IV twice per day for four days in 3 nude mice.

[7] = Stability in human plasma; format: in vitro ADME; details: after five hours
Method: as §1

[8] = system: BJ-TERT/LT/ST/RAS^V12 cells; assay: Oxidative species detection (H2DCF-DA, flow cytometry); format: cell-based, human; details: 4.6 μM erastin
Method: BJ-TERT/LT/ST/RAS^V12 cells (shown in histogram plots and in line graph, dark line) and BJ-TERT cells (shown in line graph only, light line) were treated with 4.6-μM erastin and the level of intracellular oxidative species determined using 2′7′-dichlorodihydrofluorescein diacetate (H2DCF-DA, Molecular Probes) and flow cytometry. Cells were seeded at 3×10^5 cells per dish in 60-mm dishes and allowed to grow overnight. Cells were incubated with 10 μM of H2DCF-DA for 10 minutes, harvested by trypsinization, washed twice with cold PBS, re-suspended in 100 μl of PBS and incubated with 5 μl of 50-μg/ml propidium iodide for 10 minutes. 400 μl of PBS was added and the solution analyzed by flow cytometry (FACSCalibur-Becton-Dickinson).
2′7′-dichlorodihydrofluorescein diacetate (H2DCF-DA, Molecular Probes) was used to measure oxidative species by flow cytometry. Non-fluorescent H2DCF-DA is cleaved by endogenous esterases and then is oxidized to generate fluorescent dichlorofluorescein (DCF). BJ-TERT/LT/ST/RAS^V12 and BJ-TERT cells were seeded at 3×10^5 cells per dish in 60-mm dishes and allowed to grow overnight. Cells were treated with 4.6 μM erastin for 2, 4, 6, 8, 10 and 12 h. […] 400 μl of PBS was added and the solution analyzed by flow cytometry (FACSCalibur-Becton-Dickinson). FL1-H indicates DCF fluorescence units detected.

Compound: CCOc1ccccc1-n1c(C(C)N2CCN(C(=O)COc3ccc(Cl)cc3)CC2)nc2ccccc2c1=O (stereo not drawn) [erastin, 2-(1-{4-[2-(4-Chloro-phenoxy)-acetyl]-piperazin-1-yl}-ethyl)-3-(2-ethoxy-phenyl)-3H-quinazolin-4-one]
- compound lost [1]: ~10%
- Increase in sensitivity to erastin [2]: about two to three-fold
- PARP1 cleavage [3]: unaffected
- ATP levels per viable cell [4]: decreased modestly
- converted to primary metabolite (O-de-ethylated product) [5]: ~30%
- Gross toxicity (body weight and behavior) ([6]; 150 mg/kg in 10% DMSO, 20% Tween 80, 70% saline, IV twice per day for four days, nude mice): No gross toxicity
- Overt toxicity ([6]; single dose IP in 100% DMSO up to 450 mg/kg): no overt toxicity
- compound lost [7]: ~10%
- Formation of oxidative species [8]: oxidizing species were detected
